Results taken from US20020045242A1, “Culture medium for culturing Lactobacillus clearans, and method for preserving said strain” (priority 1999, published 2002).
Read-outs that look alike come from different tables or passages of the source.

Columns and labels:
Lactobacillus clearans [1] = experiment: Viability of Lactobacillus clearans during storage with preservatives
Procedure: (§1) Here, alfalfa juice and clover juice refer to liquids which are made by adding 10-fold water to alfalfa grass or clover grass to make a juice, these being used as alfalfa juice or clover juice, respectively. The amounts in which the preservatives are added are expressed in terms of the weight ratio of the preservative relative to the weight of the viable cells. […] The viability of Lactobacillus clearans is expressed as a percentage, where 100% is the viable cell count immediately after lyophilization. The viability during lyophilization is indicated as concentric circles when the viability is more than 90%, as two concentric circles to one circle when the rate is 80 to 90%, as one circle when the rate is 60 to 80%, as a square when the rate is 40 to 60%, as a triangle when the rate is 20 to 40%, and as an “x” when the rate is less than 20%.
(§2) Here, the amounts in which the preservatives were added are expressed as the weight ratio of the preservative relative to the viable cell weight. […] The viability of Lactobacillus clearans during lyophilization is indicated as two concentric circles when the viability is more than 90%, as two concentric circles to one circle when the rate is 80 to 90%, as one circle when the rate is 60 to 80%, as a square when the rate is 40 to 60%, as a triangle when the rate is 20 to 40%, and as an “x” when the rate is less than 20%.

Lactobacillus clearans [2] = experiment: Changes in titer of Lactobacillus clearans during storage with preservatives; format: cell-based
Procedure: as §1, §2

Lactobacillus clearans [3] = experiment: Viability of Lactobacillus clearans during lyophilization with preservatives; format: cell-based; details: viability class
Procedure: as §1, §2

Lactobacillus clearans [4] = experiment: Effect of substances added during subculture on titer of Lactobacillus clearans; format: cell-based; details: added to medium during subculture
Source text: The most important amino acids constituting the bacterial cells or enzymes were studied by type for their effects on Lactobacillus clearans.
We looked for substances capable of such enhancement or potentiation and conducted extensive- study.

[5] = Lactobacillus clearans, 3 months
[6] = Lactobacillus clearans, 6 months
[7] = Lactobacillus clearans, 12 months
[8] = protein-amino acid-based preservative
[9] = protein-amino acid-based preservative used alone
[10] = saccharides and animal-based complex preservative
[11] = saccharides and animal-based protein·vitamin·mineral complex preservative used alone
[12] = protein-amino acid-based preservative, 100% = viable cell count immediately after lyophilization, 3 months
[13] = protein-amino acid-based preservative, 100% = viable cell count immediately after lyophilization, 6 months
[14] = protein-amino acid-based preservative, 100% = viable cell count immediately after lyophilization, 12 months

Molecule	Changes over time during storage, Viability (%) 3 months (Lactobacillus clearans [1]; [5]) [%]	Changes over time during storage, Viability (%) 6 months (Lactobacillus clearans [1]; [6]) [%]	Changes over time during storage, Viability (%) 12 months (Lactobacillus clearans [1]; [7]) [%]	Changes over time during storage, Changes in titer (Lactobacillus clearans [2]; [8])	Results during lyophilization (Lactobacillus clearans [3]; [9])	effect on titer of Lactobacillus clearans (Lactobacillus clearans [4])	further results
NCC(=O)O [Glycine]	25	10	2	−	Δ (a triangle when the rate is 20 to 40%)		
O=C(O)[C@@H]1CCCN1 [proline]						a rapid decrease in titer	
[Mg+2] [magnesium]						effective	
Gelatin					X (an “x” when the rate is less than 20%)		Changes over time during storage, Viability (%) 3 months (Lactobacillus clearans [1]): 10%; Changes over time during storage, Viability (%) 6 months (Lactobacillus clearans [1]): 3%; Changes over time during storage, Viability (%) 12 months (Lactobacillus clearans [1]): 0%
N=C(N)NCCC[C@H](N)C(=O)O [Arginine]	20	5	2		Δ (a triangle when the rate is 20 to 40%)		Changes over time during storage, Changes in titer (Lactobacillus clearans [2]): −
CSCC[C@H](N)C(=O)O [Methionine]	65	45	30	+	◯ (one circle when the rate is 60 to 80%)	extremely effective	
N[C@@H](CS)C(=O)O [Cysteine]	65	45	30	+	◯ (one circle when the rate is 60 to 80%)	extremely effective	
N[C@@H](CC(=O)O)C(=O)O [aspartic acid]						extremely effective	
Potato starch							Changes over time during storage, Viability (%) 3 months (Lactobacillus clearans [1]): 30%; Changes over time during storage, Viability (%) 6 months (Lactobacillus clearans [1]): 20%; Changes over time during storage, Viability (%) 12 months (Lactobacillus clearans [1]): 10%
NCCS(=O)(=O)O [Taurine]	70	50	35	+	◯ (one circle when the rate is 60 to 80%)	extremely effective	
NCCCC(=O)O	65	45	25	±	□ (a square when the rate is 40 to 60%)		
Yeast extract							Changes over time during storage, Viability (%) 3 months (Lactobacillus clearans [1]): 50%; Changes over time during storage, Viability (%) 6 months (Lactobacillus clearans [1]): 30%; Changes over time during storage, Viability (%) 12 months (Lactobacillus clearans [1]): 20%
OC[C@H]1O[C@@H](O[C@H]2[C@H](O)[C@@H](O)C(O)O[C@@H]2CO)[C@H](O)[C@@H](O)[C@H]1O (some centres unmarked) [Lactose]	70	50	20				Changes over time during storage, Changes in titer (Lactobacillus clearans [2]; [10]): ±; Results during lyophilization (Lactobacillus clearans [3]; [11]): □ (a square when the rate is 40 to 60%)
N[C@@H](CCC(=O)[O-])C(=O)[O-].[Na+].[Na+] [Sodium glutamate]				±	□ (a square when the rate is 40 to 60%)		Changes over time during storage, Viability (%) 3 months (Lactobacillus clearans [1]; [12]): 60%; Changes over time during storage, Viability (%) 6 months (Lactobacillus clearans [1]; [13]): 40%; Changes over time during storage, Viability (%) 12 months (Lactobacillus clearans [1]; [14]): 20%
[Mn+2] [manganese]						effective	
C[C@H](N)C(=O)O [Alanine]	30	15	5	−	Δ (a triangle when the rate is 20 to 40%)		
N[C@@H](Cc1c[nH]c2ccccc12)C(=O)O [Tryptophan]	25	10	4	−	Δ (a triangle when the rate is 20 to 40%)		

Molecule	Changes over time during storage, Viability (%) 3 months (Lactobacillus clearans [1]; [5]) [%]	Changes over time during storage, Viability (%) 6 months (Lactobacillus clearans [1]; [6]) [%]	Changes over time during storage, Viability (%) 12 months (Lactobacillus clearans [1]; [7]) [%]	Changes over time during storage, Changes in titer (Lactobacillus clearans [2]; [8])	Results during lyophilization (Lactobacillus clearans [3]; [9])	effect on titer of Lactobacillus clearans (Lactobacillus clearans [4])	further results
NCCCC[C@H](N)C(=O)O [Lysine]				±	Δ (a triangle when the rate is 20 to 40%)	extremely effective	Changes over time during storage, Viability (%) 3 months (Lactobacillus clearans [1]; [12]): 30%; Changes over time during storage, Viability (%) 6 months (Lactobacillus clearans [1]; [13]): 15%; Changes over time during storage, Viability (%) 12 months (Lactobacillus clearans [1]; [14]): 5%
N[C@@H](CSSC[C@H](N)C(=O)O)C(=O)O [Cystine]	70	50	35	+	◯ (one circle when the rate is 60 to 80%)	extremely effective	
[Mo] [molybdenum]						effective	
Soluble starch							Changes over time during storage, Viability (%) 3 months (Lactobacillus clearans [1]): 60%; Changes over time during storage, Viability (%) 6 months (Lactobacillus clearans [1]): 40%; Changes over time during storage, Viability (%) 12 months (Lactobacillus clearans [1]): 15%
Vitamin B12						effective	
N[C@@H](CCC(=O)O)C(=O)O [glutamic acid]						extremely effective	
NC(=O)C[C@H](N)C(=O)O [Asparagine]	55	30	15	±	□ (a square when the rate is 40 to 60%)		
calcium pantothenate						effective	
OC[C@H]1O[C@@](CO)(O[C@H]2O[C@H](CO)[C@@H](O)[C@H](O)[C@H]2O)[C@@H](O)[C@@H]1O [Sucrose]	30	15	5				Changes over time during storage, Changes in titer (Lactobacillus clearans [2]; [10]): −; Results during lyophilization (Lactobacillus clearans [3]; [11]): Δ (a triangle when the rate is 20 to 40%)
Vitamin E						effective	
CC(C)C[C@H](N)C(=O)O [Leucine]	25	10	3	−	Δ (a triangle when the rate is 20 to 40%)		
[Zn] [zinc]						effective	
Nc1nc2ncc(CNc3ccc(C(=O)N[C@@H](CCC(=O)O)C(=O)O)cc3)nc2c(=O)[nH]1 [folic acid]						effective	
O=C1O[C@H]([C@@H](O)CO)C(O)=C1O [Vitamin C]						effective	
OC[C@H]1O[C@H](O[C@H]2O[C@H](CO)[C@@H](O)[C@H](O)[C@H]2O)[C@H](O)[C@@H](O)[C@@H]1O [Trehalose]							Changes over time during storage, Viability (%) 3 months (Lactobacillus clearans [1]; saccharides and animal-based complex preservative, 100% = viable cell count immediately after lyophilization, 3 months): 75%; Changes over time during storage, Viability (%) 6 months (Lactobacillus clearans [1]; saccharides and animal-based complex preservative, 100% = viable cell count immediately after lyophilization, 6 months): 50%; Changes over time during storage, Viability (%) 12 months (Lactobacillus clearans [1]; saccharides and animal-based complex preservative, 100% = viable cell count immediately after lyophilization, 12 months): 30%; Changes over time during storage, Changes in titer (Lactobacillus clearans [2]; [10]): +; Results during lyophilization (Lactobacillus clearans [3]; [11]): ◯ (one circle when the rate is 60 to 80%)
NC(=O)c1cccnc1 [nicotinamide]						effective	
Ovalbumin: protein-based preservative (protein, UniProt P01012 2-386, looked up) Ovalbumin: GSIGAASMEFCFDVFKELKVHHANENIFYCPIAIMSALAMVYLGAKDSTRTQINKVVRFDKLPGFGDSIEAQCGTSVNVHSSLRDILNQITKPNDVYSFSLASRLYAEERYPILPEYLQCVKELYRGGLEPINFQTAADQARELINSWVESQTNGIIRNVLQPSSVDSQTAMVLVNAIVFKGLWEKAFKDEDTQAMPFRVTEQESKPVQMMYQIGLFRVASMASEKMKILELPFASGTMSMLVLLPDEVSGLEQLESIINFEKLTEWTSSNVMEERKIKVYLPRMKMEEKYNLTSVLMAMGITDVFSSSANLSGISSAESLKISQAVHAAHAEINEAGREVVGSAEAGVDAASVSEEFRADHPFLFCIKHIATNAVLFFGRCVSP				+	◯ (one circle when the rate is 60 to 80%)		Changes over time during storage, Viability (%) 3 months (Lactobacillus clearans [1]): 70%; Changes over time during storage, Viability (%) 6 months (Lactobacillus clearans [1]): 50%; Changes over time during storage, Viability (%) 12 months (Lactobacillus clearans [1]): 30%
